From patent US10927075B2, “Compositions and methods relating to the treatment of cancer, autoimmune disease, and neurodegenerative disease” (THE JACKSON LABORATORY, priority 2014, dated 2021)
Entries after “also recorded” stand apart in the source; their conditions may differ.

How the values were obtained:
MEC-2 cells = assay: Viability of human B cell tumor cell line (Trypan Blue); assay type: cell-based
Method: (§1) FIG. 15A depicts an analysis of primary WT (AID+/+, closed markers) and AID−/− (open markers) murine B cell proliferation under activating conditions (αCD40 and IL-4 on days 0 and 2) and treated with the indicated doses of C-1523 for 4 days. Measurement of cell proliferation was determined by Trypan Blue staining and counting of viable, non-staining, cells via hemocytometer. Data are represented as the mean cell count for each condition. FIG. 15B depicts data from experiments in which primary B cells from A were stained with PI on day 4 and analyzed via flow cytometry for the percentage of cells that were non-viable, PI-positive (PI+). FIG. 15C depicts RT-PCR analysis of AID expression in cultured human cell lines. Water (H2O) and RNA from HEK293T cells were employed as negative controls for template and AID expression, respectively, and human activated B lymphocyte RNA (Stim B) was used as a positive control. GAPDH expression was included as a loading control. FIG. 15D depicts viability analysis of CCRF-SB, MEC-1, and MEC-2 cells after 6 days in culture with the indicated concentrations of C-1523, 150 μM DIDS, or DMSO vehicle. Viability was determined by Trypan Blue staining and counting via hemocytometer. FIG. 15E depicts representative immunofluorescence images of phosphorylated γH2AX (green) and nuclei (DAPI, blue) in primary murine splenic B cells from AID−/− (left) or AID+/+ (WT, right) mice. Cells were activated with αCD40 and IL-4 and treated with 100 nM C-1523 for 3 d. Scale bars, 10 μM. FIG. 15F depicts quantitation of foci observed in AID−/− and WT cells represented in FIG. 15E. Data were grouped into categories of cells with low (1-2 foci per nucleus), moderate (3-10 foci per nucleus), or high (>10 foci per nucleus) amounts of DNA damage. Error bars represent the SEM for three independent experiments.
(§2) FIG. 23 depicts graphs of viability analysis for human cancer cell lines treated with C-1523. The acute lymphoblastic leukemia (ALL) line CCRF-SB and the chronic lymphocytic leukemia lines MEC1 and MEC2 were treated with vehicle (DMSO) or 100 nM C-1523, and viability was measured by Tyrpan blue exclusion. All three lines express AID and are sensitive to C-1523 treatment.
(§3) The effect of C-1523 on the viability of AID-expressing human B cell tumor cell lines was further tested ([…]). CCRF-SB is an acute lymphoblastic leukemia cell line derived from a buffy coat preparation (Foley et al., 1968). MEC-1 and MEC-2 are cell lines derived from a patient with chronic lymphocytic leukemia at two different timepoints (before and after fludarabine and rituximab therapy) (Stacchini et al., 1999). C-1523 was tested in these cell lines over a dose range from 1 to 1000 nM, in log increments, and compared to 150 μM DIDS. […] Biphasic or hormetic responses for small molecules can reflect a number of biochemical/biological mechanisms (Calabrese, 2013).
(§4) Cell lines and cell culture. […] Immunofluorescence.

CCRF-SB cells = assay: as above; assay type: cell-based
Method: as §1, §2, §3, §4

MEC-1 cells = assay: as above; assay type: cell-based
Method: as §1, §2, §3, §4

[1] = tested on: WT, AID−/−, or Trp53−/− B-cells; assay: Active caspase-3 (AC3) immunofluorescence; assay type: cell-based, mouse; settings: 100 nM, 3 days after activation
Method: FIG. 16A depicts the measurement of viability of primary WT (AID+/+, circle markers), AID−/− (square markers), and p53−/− (triangle markers) B cells under activating conditions (αCD40 and IL-4 on days 0 and 2) and treated with either DMSO (filled in markers) or 100 nM C-1523 (open markers). Measurement of cell viability was determined by Trypan Blue staining and counting of viable, non-staining, cells via hemocytometer. Data are represented as the mean cell count for each condition. FIG. 16B depicts analysis of cell death on day 4 of cells treated as in FIG. 16A. Cell death was measured by Trypan Blue staining and counting of blue, dead cells via hemocytometer. FIG. 16C depicts quantitation of active caspase-3 (AC3) in primary B cells via immunofluorescence assay. Left, positive (WT, 10 Gy IR) and negative (0 Gy, and p53−/− 10 Gy) controls for AC3 induction. […]
Cell death mediated by C-1523 is p53-dependent. […] To test the importance of p53, a central regulator of cellular responses to DNA damage, viability was measured in mouse primary B-cells from Trp53+/+ versus Trp53−/− mice following exposure to C-1523. […] Caspase 3 activation, a marker of apoptotic cell death, was measured in C-1523 treated B-cells. B-cells were stained with an antibody that recognizes cleaved, activated caspase-3 (AC3) and the number of AC3-positive cells was measured via immunofluorescence microscopy. […]

[2] = tested on: AID−/− or p53−/− primary mouse B cells; assay: Micronuclei assay; assay type: cell-based; settings: 100 nM, 3 days
[3] = tested on: AID-expressing mouse B-lymphocytes
mES cells = assay: DR-GFP reporter assay (HR repair of endonuclease generated DSB); assay type: cell-based, mouse; settings: 100 nM, compared to DMSO
[4] = tested on: primary splenic B-cells from WT (AID-expressing) mice; assay: Expansion and viability of activated primary splenic B-cells
U2OS cells = assay: DR-GFP reporter assay (HR repair of endonuclease generated DSB); assay type: cell-based, human; settings: 100 nM or 1 μM

Structure (SMILES): CC(=O)Nc1ccc(/C=C/c2ccc(NC(=S)NC(C)C)cc2S(=O)(=O)O)c(S(=O)(=O)O)c1 [C-1523, (E)-5-acetamido-2-(4-(3-isopropylthioureido)-2-sulfonatostyryl)benzenesulfonate]
- sensitivity (viability) (MEC-2 cells; 100 nM): sensitive
- viability response over dose range (MEC-2 cells; 1 to 1000 nM, 6 days): sensitive at all doses tested
- sensitivity (viability) (CCRF-SB cells; 100 nM): sensitive
- viability reduction at highest dose (CCRF-SB cells; 1000 nM): less than that observed after treatment with 100 nM
- concentration of greatest viability reduction (CCRF-SB cells; 1 to 1000 nM): 100 nM
- viability response over dose range (CCRF-SB cells; 1 to 1000 nM, 6 days): dose-dependent viability response
- sensitivity (viability) (MEC-1 cells; 100 nM): sensitive
- viability reduction at highest dose (MEC-1 cells; 1000 nM): less than that observed after treatment with 100 nM
- concentration of greatest viability reduction (MEC-1 cells; 1 to 1000 nM): 100 nM
- viability response over dose range (MEC-1 cells; 1 to 1000 nM, 6 days): dose-dependent viability response
- caspase 3 activation [1]: did not significantly induce caspase 3 activation
- acute side effects relative to DIDS (in vivo): no increased acute side effects
- acute toxicity (in vivo): almost no acute toxicity
- tolerance to prolonged drug exposure (single and multiple dose): excellent tolerance
- fraction of micronuclei [2]: no increase in the fraction of micronuclei
- concentration eliciting AID-specific cytotoxicity [3]: 100 nM
- rank among DIDS analogs tested [3]: most potent DIDS analog tested
- AID+:AID− activity score: effect in AID+ cells versus corresponding AID- cells ([3]; 10 μM): roughly 6 fold
- effectiveness relative to DIDS ([3]; Example 3 summary): 1000 times
- potency relative to DIDS ([3]; dose response data): at least 1500 times
- reduction of percentage of GFP-positive cells (mES cells): about 40%
- dependence of induced cell death [4]: both AID and Trp53 dependent
- shape of dose response ([4]; 1 to 1000 nM): biphasic response
- B-cell viability ([4]; 50, 100, 150, 200, or 250 nM, 3 days, Trypan blue): dose-dependent reduction in B-cell viability; also recorded: dose dependent reduction in B-cell viability
- cellular expansion ([4]; 50-250 nM, four days, αCD40+IL-4 activation): selectively suppressed cellular expansion
- PI+ cells (cell death) ([4]; day 4, flow cytometry): significant increase in PI+ cells
- change in GFP-positive cells (U2OS cells): no significant change
